Laboratory results as given in patent US20230330020A1, “MEDICATION THAT PROTECTS THE INTESTINAL MICROBIOTA AND THEIR PREPARATION METHODS AND APPLICATIONS” (priority 2020, published 2023).

How the values were obtained:
Streptococcus pneumoniae = test: Mouse pneumonia induced by intranasal Streptococcus pneumoniae, oral treatment; format: in vivo, mice
Protocol: In one implementation, the effectiveness of orally administered ampicillin wrapped in PGNPs for treating mouse pneumonia was validated. Firstly, we induced mouse pneumonia by intranasally administering Streptococcus pneumoniae. At 2 and 8 hours post-induction, the mice received either ampicillin encapsulated in PGNPs or free ampicillin treatment. At 24 hours post-infection, the number of Streptococcus pneumoniae in the mouse lungs and the proportion of neutrophil infiltration were analyzed.
Mice were divided into four groups, with two control groups receiving no ampicillin treatment and two treatment groups receiving ampicillin treatment after infection, with at least 3 mice per group. Mouse pneumonia was induced by intranasal inoculation of 3×10^8 CFUs of Streptococcus pneumoniae. After infection, mice were orally treated with either free ampicillin or PGNPs encapsulated with ampicillin (40 mg kg^−1) at 2 hours and 8 hours post-infection. After 24 hours of infection, the number of Streptococcus pneumoniae in the lungs was measured. Mouse lung tissues were collected and homogenized in sterile PBS, diluted 10-fold in PBS, and plated for colony counting. The proportion of neutrophil infiltration in the lungs of the mice was determined by staining the lung tissues with antibodies and analyzing with a flow cytometer.

[1] = tested on: ampicillin resistance gene ampC; test: Real-time quantitative PCR of resistance gene ampC and total bacterial 16S rRNA in fecal DNA; format: in vivo, mice; details: oral 20 mg kg^-1 once a day 5 days; feces; vs control
Protocol: We orally administered PGNPs-encapsulated ampicillin and free ampicillin to 6-8 weeks old mice for 5 consecutive days, once a day, while the control group was not given any ampicillin treatment. At specific time points during and after the antibiotic treatment period, we collected fecal samples from the mice, extracted DNA, determined DNA concentration, diluted to 10 ng μL^−1, and analyzed the copy number of the ampicillin resistance gene ampC using real-time fluorescence quantitative PCR.
Mice were divided into four groups, with 6 mice in each group. The control group was not treated with antibiotics, while the experimental group was given free antibiotics or antibiotics encapsulated in PGNPs prepared as described above. The experimental group mice were orally administered ampicillin (20 mg kg^−1) and PGNPs- encapsulated ampicillin once a day for 5 consecutive days. At specific time points, mouse feces were collected, and total DNA was extracted from fecal samples, and the concentration was measured. Real-time quantitative PCR was used to amplify the ampicillin resistance gene ampC and the total bacterial 16S rRNA in fecal DNA, and the copy numbers of the two genes were calculated to determine the effect of the two different antibiotic treatments on the abundance of antibiotic-resistant bacteria in the gut.

[2] = Loading rate (encapsulation efficiency) of antibiotics in PGNPs by double emulsion, single emulsion and dialysis; format: physicochemical; details: hydrophobic antibiotics; Gluc-PEG-PLGA + cationic lipid
From the text: In one implementation, we used a double-emulsification method to encapsulate hydrophilic antibiotics such as ampicillin and erythromycin, and measured an encapsulation efficiency of 50%-60%. Using a dialysis method, we encapsulated hydrophobic antibiotics such as metronidazole and achieved an encapsulation efficiency of 25%. Encapsulation of hydrophobic antibiotics such as metronidazole using a single-emulsification method yielded an encapsulation efficiency of 20%-40%. Various types of antibiotics with different properties can be encapsulated in nanoparticles using methods such as single-emulsification, double-emulsification, and dialysis, as shown in FIG. 3. The double-emulsification method yielded the highest encapsulation efficiency for hydrophilic antibiotics.
For hydrophilic antibiotics, such as ampicillin and vancomycin, the double emulsion method was used for loading. A water-soluble solution (100 mg mL^−1, 30 μL) of either ampicillin or vancomycin was added to 0.5 mL of dichloromethane containing 0.5 mg DOTAP and 5 mg glucose-PEG-PLGA. […] The concentration of the loaded antibiotics in the nanoparticles was measured using a UV spectrophotometer or HPLC. The loading rate was calculated by dividing the mass of loaded antibiotics by the total mass of antibiotics used for loading. […]

[3] = 40 mg kg^-1 oral at 2 h and 8 h post-infection, 24 h, vs untreated group

| Structure (SMILES) | neutrophil proportion in the lungs (Streptococcus pneumoniae; [3]) | number of lung Streptococcus pneumoniae (Streptococcus pneumoniae; [3]) | therapeutic effect on mouse pneumonia (Streptococcus pneumoniae; oral at 2 and 8 hours post-induction, analysed at 24 hours) | copy number of gut bacterial resistance gene ampC [1] | encapsulation efficiency, dialysis method [2] |
| --- | --- | --- | --- | --- | --- |
| CC1(C)S[C@@H]2[C@H](NC(=O)[C@H](N)c3ccccc3)C(=O)N2[C@H]1C(=O)O [Free-Amp, ampicillin] | significant decrease | significant decrease | good therapeutic effects | increased sharply over time | – |
| Cc1ncc([N+](=O)[O-])n1CCO [metronidazole] | – | – | – | – | 25% |
